Holding throughout (type): in vivo
A short description of data set [1]: Acute toxicity, testing in the mouse. The note with it: in vivo, in rape oil; for LD50 at 240 h: 10 days. An excerpt: (§1) Toxicity tests carried out in mice and rats gave the following results for acute toxicity:
(§2) 1. Vitamin A acid ethyl amide in rape oil (per os and intraperitoneal administration)
(§3) 2. Vitamin A acid ethanol amide in rape oil (intraperitoneal administration)
(§4) 3. Vitamin A acid diethyl amide, vitamin A acid n-butyl amide, vitamin A acid phenyl amide, vitamin A acid isopropyl amide, or vitamin A acid methyl amide in rape oil (intraperitoneal administration)

The subject of another data set is mouse. The experiment in a line: Acute toxicity, testing in the mouse. The note with it: in rape oil.
From the text: as §1, §2, §3, §4

Data set [2] in a line: Acute toxicity, testing in the rat. Conditions: in vivo, in rape oil, per os and intraperitoneal administration.
From the text: as §1
(§5) Vitamin A acid ethyl amide in rape oil (per os and intraperitoneal administration)

In another data set the test system is rat. Put plainly: Acute toxicity, testing in the rat. The note with it: in rape oil, per os and intraperitoneal administration.
From the text: as §1, §5

Where [3] appears, read: ip, intraperitoneal administration.
[4] abbreviates: intraperitoneal administration, 24 hrs.
The mark [5] stands for this setting: intraperitoneal administration, 10 days.
The mark [6] stands for this setting: per os and intraperitoneal administration.
The mark [7] stands for this setting: per os and intraperitoneal administration, 20 days.
Where [8] appears, read: per os and intraperitoneal administration, 24 hrs.
[9] abbreviates: per os and intraperitoneal administration, 10 days.

As usually defined, the LD50 is the dose expected to kill half of the subjects tested. A higher LD50 goes with lower toxicity. `CCN(CC)C(=O)/C=C(C)/C=C/C=C(C)/C=C/C1=C(C)CCCC1(C)C` [Vitamin A acid diethyl amide, vitamin A acid diethyl amide]: in data set [1] (setting [3]), the 50% lethal dose (LD50) at 24 h is above 4000 mg/kg and the LD50 at 240 h is above 4000 mg/kg. In the data set with mouse (setting [4]), the LD10 is given as above 4000 mg/kg and the LD90 is listed as above 4000 mg/kg. Also, in the data set with mouse (setting [5]), the LD10 is reported as above 4000 mg/kg and the LD90 is on record as above 4000 mg/kg.
On to `CC1=C(/C=C/C(C)=C/C=C/C(C)=C/C(=O)NCCO)C(C)(C)CCC1` [Vitamin A acid ethanol amide, vitamin A acid ethanol amide], for which, in data set [1] (setting [3]), the LD50 at 24 h is above 4000 mg/kg and the LD50 at 240 h was found to be 1000 mg/kg. In the data set with mouse (setting [4]), this molecule yielded an LD10 above 4000 mg/kg and an LD90 above 4000 mg/kg. In addition, in the data set with mouse (setting [5]), the LD10 stood at 710 mg/kg and the LD90 turned out to be 1400 mg/kg.
Regarding `CCNC(=O)/C=C(C)/C=C/C=C(C)/C=C/C1=C(C)CCCC1(C)C` [Vitamin A acid ethyl amide, vitamin A acid monoethyl amide], the LD50 at 24 h in data set [2] (24 hrs.) and in data set [1] (setting [6]) was above 4000 mg/kg throughout. Besides, the LD50 at 240 h in data set [2] (10 days) and in data set [1] (setting [6]) was above 4000 mg/kg throughout. In addition, the LD10 with rat (24 hrs.), in the data set with rat (10 days), in the data set on mouse (setting [8]), in the data set on mouse (setting [9]) and in the data set with mouse (setting [7]) was above 4000 mg/kg throughout. Besides, the LD90 with rat (24 hrs.), with rat (10 days), in the data set with mouse (setting [8]), in the data set on mouse (setting [9]) and in the data set with mouse (setting [7]) was above 4000 mg/kg in each case. In data set [1] (setting [7]), this molecule showed a median lethal dose (LD50) at 480 h above 4000 mg/kg.
In data set [1] (setting [3]), `CC1=C(/C=C/C(C)=C/C=C/C(C)=C/C(=O)NC(C)C)C(C)(C)CCC1` [vitamin A acid isopropyl amide] displayed an LD50 at 24 h above 4000 mg/kg and an LD50 at 240 h above 4000 mg/kg. For the same molecule, in the data set on mouse (setting [4]), the LD10 is above 4000 mg/kg and the LD90 is on record as above 4000 mg/kg. In the data set with mouse (setting [5]), this molecule showed an LD10 above 4000 mg/kg and an LD90 above 4000 mg/kg.
In data set [1] (setting [3]), `CNC(=O)/C=C(C)/C=C/C=C(C)/C=C/C1=C(C)CCCC1(C)C` [vitamin A acid methyl amide] gave an LD50 at 24 h above 4000 mg/kg and an LD50 at 240 h above 4000 mg/kg. In the data set on mouse (setting [4]), the LD10 is given as above 4000 mg/kg and the LD90 is above 4000 mg/kg. In the data set on mouse (setting [5]), this molecule displayed an LD10 above 4000 mg/kg and an LD90 above 4000 mg/kg.
Regarding `CCCCNC(=O)/C=C(C)/C=C/C=C(C)/C=C/C1=C(C)CCCC1(C)C` [vitamin A acid n-butyl amide], in data set [1] (setting [3]), the LD50 at 24 h is above 4000 mg/kg and the LD50 at 240 h was above 4000 mg/kg. Besides, in the data set on mouse (setting [4]), the LD10 is above 4000 mg/kg and the LD90 was above 4000 mg/kg. In addition, in the data set on mouse (setting [5]), the LD10 was above 4000 mg/kg and the LD90 was above 4000 mg/kg.
With `CC1=C(/C=C/C(C)=C/C=C/C(C)=C/C(=O)Nc2ccccc2)C(C)(C)CCC1` [vitamin A acid phenyl amide], in data set [1] (setting [3]), the median lethal dose (LD50) at 24 h was above 4000 mg/kg and the LD50 at 240 h was above 4000 mg/kg. Further, in the data set on mouse (setting [4]), the LD10 is given as above 4000 mg/kg and the LD90 is given as above 4000 mg/kg. Also, in the data set with mouse (setting [5]), the LD10 was above 4000 mg/kg and the LD90 is above 4000 mg/kg.
